Counter-ions that a name gives are not always drawn.
System: Acinetobacter baumannii ATCC 17978
Test: Antimicrobial susceptibility testing: 90% growth inhibitory concentration (IC90) determination
Assay type: cell-based
Settings: 90% growth inhibitory concentration; Acinetobacter baumannii ATCC17978; Iso-Sensitest broth, OD 600 nm over 16h; read-out: ATCC17978 IC90
Procedure, shortened: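 Compounds serially twofold diluted (e.g. 50 to 0.097 μM final) in Iso-Sensitest broth, inoculated at ~5×10^(5) CFU/ml, incubated at 35±2° C. OD600 read every 20 minutes over 16h. IC90 taken as concentration inhibiting 90% of growth during logarithmic phase.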

SMILES | IC90 [nM]
CCc1cc(Nc2nccn3c(-c4ccc(OC)c(F)c4F)cnc23)ccc1C(=O)N[C@@H](CCN)C(=O)OC [Example 322, methyl (2S)-4-amino-2-[[4-[[3-(2,3-difluoro-4-methoxyphenyl)imidazo[1,2-a]pyrazin-8-yl]amino]-2-ethylbenzoyl]amino]butanoate; hydrochloride] | 4400
CCc1cc(Nc2nccn3c(-c4ccc(OC)c(F)c4F)cnc23)ccc1C(=O)NCCCCCCCCN [Example 540, N-(8-aminooctyl)-4-((3-(2,3-difluoro-4-methoxyphenyl)imidazo[1,2-a]pyrazin-8-yl)amino)-2-ethylbenzamide hydrochloride] | 100
CCc1cc(Nc2nccn3c(-c4ccc(OC)c(F)c4F)cnc23)ccc1C(=O)NCCCNC(=O)[C@@H](N)CCCNC(=N)N [Example 343, N-[3-[[(2S)-2-amino-5-carbamimidamidopentanoyl]amino]propyl]-4-[[3-(2,3-difluoro-4-methoxyphenyl)imidazo[1,2-a]pyrazin-8-yl]amino]-2-ethylbenzamide;2,2,2-trifluoroacetic acid] | 750

Same assay, conditions: Acinetobacter baumannii, ATCC17978, 16 h, 90% growth inhibitory concentration; Acinetobacter baumannii ATCC17978; Iso-Sensitest broth, OD 600 nm over 16h; read-out: ATCC17978 IC90

IC90 [nM] | SMILES
1100 | COc1ccc(-c2cnc3c(Nc4ccc(C(=O)NCCCC[C@H](N)C(=O)O)c(C)c4)nccn23)c(F)c1F [Example 349, (2S)-2-amino-6-[[4-[[3-(2,3-difluoro-4-methoxyphenyl)imidazo[1,2-a]pyrazin-8-yl]amino]-2-methylbenzoyl]amino]hexa-noic acid;2,2,2-trifluoroacetic acid]
23 | N#CCOc1ccc(-c2cnc3c(Nc4ccc(C(=O)NCCCCCN)c(Cl)c4)nccn23)c(F)c1F [Example 496, N-(5-aminopentyl)-2-chloro-4-[[3-[4-(cyanomethoxy)-2,3-difluorophenyl]imidazo[1,2-a]pyrazin-8-yl]amino]benzamide]
210 | CCc1cc(Nc2nccn3c(-c4ccc(OC)c(F)c4Cl)cnc23)ccc1C(=O)NCCNC(=O)[C@@H](N)CCCNC(=N)N [Example 126, N-[2-[[(2S)-2-amino-5-guanidino-pentanoyl]amino]ethyl]-4-[[3-(2-chloro-3-fluoro-4-methoxy-phenyl)imidazo[1,2-a]pyrazin-8-yl]amino]-2-ethyl-benzamide formate]
320 | CCc1cc(Nc2nccn3c(-c4ccc(OC)c(F)c4F)cnc23)ccc1C(=O)NCCN1CCN(CCCC(=O)O)CC1 [Example 444, 4-(4-(2-(4-((3-(2,3-difluoro-4-methoxyphenyl)imidazo[1,2-a]pyrazin-8-yl)amino)-2-ethylbenzamido)ethyl)pipera-zin-1-yl)butanoic acid]
410 | CCc1cc(Nc2nccn3c(-c4ccc(Oc5ccccn5)c(F)c4F)cnc23)ccc1C(=O)NCCC(=O)N1CCN[C@H](CO)C1 [Example 475, 4-[[3-[2,3-difluoro-4-(2-pyridyloxy)phenyl]imidazo [1,2-a]pyrazin-8-yl]amino]-2-ethyl-N-[3-[(3S)-3-(hydroxymethyl)piperazin-1-yl]-3-oxo-propyl]benzamide]
480 | C#CCOc1ccc(-c2cnc3c(Nc4ccc(C(=O)N[C@H](C)CN)c(CC)c4)nccn23)c(F)c1F [Example 460, N-[(1R)-2-amino-1-methyl-ethyl]-4-[[3-(2,3-difluoro-4-prop-2-ynoxy-phenyl)imidazo[1,2-a]pyrazin-8-yl]amino]-2-ethyl-benzamide]
470 | CCc1cc(Nc2nccn3c(-c4ccc(Oc5ncccn5)c(F)c4F)cnc23)ccc1C(=O)NCC1CCNCC1 [Example 548, 4-((3-(2,3-difluoro-4-(pyrimidin-2-yloxy)phenyl)imidazo[1,2-a]pyrazin-8-yl)amino)-2-ethyl-N-(piperidin-4-ylmethyl)benzamide formate]
160 | CCc1cc(Nc2nccn3c(-c4ccc(OC(F)F)c(F)c4F)cnc23)ccc1C(=O)NCC1CCN(CC2CNC2)CC1 [Example 547, N-((1-(azetidin-3-ylmethyl)piperidin-4-yl)methyl)-4-((3-(4-(difluoromethoxy)-2,3-difluorophenyl)imidazo[1,2-a]pyrazin-8-yl)amino)-2-ethylbenzamide formate]
300 | CCc1cc(Nc2nccn3c(-c4ccc(OC(F)F)c(F)c4F)cnc23)ccc1C(=O)NCCCO[C@H]1O[C@H](CO)[C@@H](O)[C@H](O)[C@H]1O [Example 328, 4-[[3-[4-(difluoromethoxy)-2,3-difluorophenyl]imidazo[1,2-a]pyrazin-8-yl]amino]-2-ethyl-N-[3-[(2S,3R,4S,5S,6R)-3,4,5-trihydroxy-6-(hydroxymethyl)oxan-2-yl]oxypropyl]benzamide]
90 | CCc1cc(Nc2nccn3c(-c4ccc(OCC#N)c(F)c4F)cnc23)ccc1C(=O)NCCNC(=O)[C@@H](N)CCN [Example 144, 4-[[3-[4-(cyanomethoxy)-2,3-difluoro-phenyl]imidazo[1,2-a]pyrazin-8-yl]amino]-N-[2-[[(2S)-2,4-diaminobutanoyl]amino]ethyl]-2-ethyl-benzamide formate]
500 | COc1ccc(-c2cnc3c(Nc4ccc(C(=O)NC[C@H](N)CNC(=O)[C@@H]5C[C@@H](O)CN5)c(C)c4)nccn23)c(F)c1F [Example 469, (2S,4R)-N-[(2S)-2-amino-3-[[4-[[3-(2,3-difluoro-4-methoxy-phenyl)imidazo[1,2-a]pyrazin-8-yl]amino]-2-methyl-benzoyl]amino]propyl]-4-hydroxy-pyrrolidine-2-carboxamide; formic acid]
300 | CCc1cc(Nc2nccn3c(-c4ccc(Oc5ccncn5)c(F)c4F)cnc23)ccc1C(=O)NCCCNC(=O)NCCNCCCN [Example 565, N-[3-[2-(3-aminopropylamino)ethylcar-bamoylamino]propyl]-4-[[3-(2,3-difluoro-4-pyrimidin-4-yloxy-phenyl)imidazo[1,2-a]pyrazin-8-yl]amino]-2-ethyl-benzamide; formic acid]
450 | CCN(C(=O)NCCCN(C)C)C(=O)c1ccc(Nc2nccn3c(-c4ccc(OCC#N)c(F)c4F)cnc23)cc1Cl [REF 149, 2-chloro-4-[[3-[4-(cyanomethoxy)-2,3-difluoro-phenyl]imidazo[1,2-a]pyrazin-8-yl]amino]-N-[3-(dimethylamino)propylcarbamoyl]-N-ethyl-benzamide]
240 | CCc1cc(Nc2nccn3c(-c4ccc(OC)c(F)c4F)cnc23)ccc1C(=O)NCCNC(=O)[C@@H](N)CCCNC1=NCCN1 [Example 128, N-[2-[[(2S)-2-amino-5-(4,5-dihydro-1H-imidazol-2-ylamino)pentanoyl]amino]ethyl]-4-[[3-(2,3-difluoro-4-methoxy-phenyl)imidazo[1,2-a]pyrazin-8-yl]amino]-2-ethyl-benzamide formate]
300 | CCc1cc(Nc2nccn3c(-c4ccc(OC)c(F)c4F)cnc23)ccc1C(=O)N[C@H](C)CNC(=O)[C@@H](N)CCCNC(=N)N [Example 331, N-[(2R)-1-[[(2S)-2-amino-5-carbamimidamidopentanoyl]amino]propan-2-yl]-4-[[3-(2,3-difluoro-4-methoxyphenyl)imidazo[1,2-a]pyrazin-8-yl]amino]-2-ethylbenzamide;formic acid]

More lines, now with the values behind:

SMILES | IC90 [nM]
COc1ccc(-c2cnc3c(Nc4ccc(C(=O)N(C)CC(=O)N5CCNC(C(=O)O)C5)c(C)c4)nccn23)cc1F (centres unmarked) [Example 173, 4-[2-[[4-[[3-(3-fluoro-4-methoxyphenyl)imidazo[1,2-a]pyrazin-8-yl]amino]-2-methylbenzoyl]-methylamino]acetyl]piperazine-2-carboxylic acid;hydrochloride] | 8600
COc1ccc(-c2cnc3c(Nc4ccc(C(=O)N(C)CCN5CCCCC5)c(C)c4)nccn23)cc1F [Example 267, 4-[[3-(3-fluoro-4-methoxyphenyl)imidazo[1,2-a]pyrazin-8-yl]amino]-N,2-dimethyl-N-(2-piperidin-1-ylethyl)benzamide] | 5400
COc1ccc(-c2cnc3c(Nc4ccc(C(=O)NCC5CCN(C(=N)N)CC5)c(Cl)c4)nccn23)cc1F [Example 296, N-[(1-carbamimidoylpiperidin-4-yl)methyl]-2-chloro-4-[[3-(3-fluoro-4-methoxyphenyl)imidazo[1,2-a]pyrazin-8-yl]amino]benzamide] | 150
COC(=O)[C@H](CCCCNC(=O)c1ccc(Nc2nccn3c(-c4ccc(OC(F)F)cc4)cnc23)cc1C)NC(=O)OC(C)(C)C [Example 245, methyl (2S)-6-[[4-[[3-[4-(difluoromethoxy)phenyl]im-idazo[1,2-a]pyrazin-8-yl]amino]-2-methylbenzoyl]amino]-2-[(2-methylpropan-2-yl)oxycarbonylamino]hexa-noate] | 2200
CCc1cc(Nc2nccn3c(-c4ccc(Oc5cnn[nH]5)c(F)c4F)cnc23)ccc1C(=O)NCC1CCN(CC2CCNC2)CC1 (centres unmarked) [Example 557, 4-[[3-[2,3-difluoro-4-(1#H!- triazol-5-yloxy)phenyl]imidazo[1,2-a]pyrazin-8-yl]amino]-2-ethyl-#N!-[[1-(pyrrolidin-3-ylmethyl)piperidin-4-yl]methyl]benzamide;formic acid] | 480
C=Cc1cc(Nc2nccn3c(-c4ccc(OC(F)F)cc4)cnc23)ccc1C(=O)N(C)CCN1CCNCC1 [Example 217, 4-[[3-[4-(difluoromethoxy)phenyl]im-idazo[1,2-a]pyrazin-8-yl]amino]-2-ethenyl-N-methyl-N-(2-piperazin-1-ylethyl)benzamide;hydrochlo-ride] | 840
CNC(=O)c1ccc(Nc2nccn3c(-c4ccc(OC(F)F)cc4)cnc23)cc1C(C)C [Example 166, 4-[[3-[4-(difluoromethoxy)phenyl]imidazo[1,2-a]pyrazin-8-yl]amino]-2-isopropyl-N-methyl-benzamide] | 980
CCc1cc(Nc2nccn3c(-c4ccc(OC(F)F)cc4)cnc23)ccc1C(=O)N(C)CCN1CCNCC1 [Example 224, 4-[[3-[4-(difluoromethoxy)phenyl]im-idazo[1,2-a]pyrazin-8-yl]amino]-2-ethyl-N-methyl-N-(2-piperazin-1-ylethyl)benzamide;hydrochlo-ride] | 1100

Source: patent US20230012368A1 (Hoffmann-La Roche Inc., priority 2018, published 2023)
